Patent US20260022143A1, “Cyclic Peptide Inhibitors of IL-23” (JANSSEN PHARMACEUTICA NV, priority 2022, published 2026)
Starred links: 1 amine or outer side, 2 acyl side, 3 side chain; linkers in the order of their positions; H or OH if unused. Positions of bridges follow the written chain, without caps; N, C: chain ends. Non-standard residues stand in square brackets, D forms with d. Residues, ends and D or L forms follow the SMILES beside them. *: point of attachment. Trp(7-(3-AcNH-Ph)) = CC(=O)Nc1cccc(-c2cccc3c(C[C@H](N)C(=O)O)c[nH]c23)c1; X13 = C[N+]1(Cc2cn(-c3ccc(C[C@H](N[*:1])C(=O)[*:2])cc3)nn2)CCOCC1; Me3N+(CH2)2O(CH2)2O(CH2)2CO = C[N+](C)(C)CCOCCOCCC(=O)*; CH2CH2OCH2CH2OCH2CH2NMe3+ = C[N+](C)(C)CCOCCOCC*; Trp(7-Me) = Cc1cccc2c(C[C@H](N)C(=O)O)c[nH]c12; dLys(Me3) = C[N+](C)(C)CCCC[C@@H](N)C(=O)O; 3Pal(5-Me) = Cc1cncc(C[C@H](N)C(=O)O)c1; 2Nal = N[C@@H](Cc1ccc2ccccc2c1)C(=O)O; AEF = NCCOc1ccc(C[C@H](N)C(=O)O)cc1; 3Pal = N[C@@H](Cc1cccnc1)C(=O)O; Ethyl(2-guanidino) = N=C(N)NCC*; Lys(Me) = CNCCCC[C@H](N)C(=O)O; Pen = CC(C)(S)[C@H](N)C(=O)O; Thp = NC1(C(=O)O)CCOCC1; X3 = C[N+](C)(C)CCCCC*; Sar = CNCC(=O)O

assay: Exposed Polar Surface Area (EPSA); format: physicochemical; settings: SFC on Chirex 3014 column; sample 1 mM DMSO stock; read-out: EPSA
In short: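 SFC retention on a Chirex 3014 (S-valine/(R)-1-(α-naphthyl)ethylamine) column at 35 °C, 4 mL/min, 14 MPa outlet, 5–60% methanol/20 mM ammonium formate gradient in CO2. Retention times converted to EPSA (Å²) via linear calibration with 8 standards; samples from 1 mM DMSO stock, run in duplicate.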

Row | SMILES | EPSA
1 | CC(=O)NCCCC[C@H](NC(=O)[C@H](CCC(=O)O)NC(=O)C1(NC(=O)[C@H](Cc2ccc3ccccc3c2)NC(=O)[C@H](Cc2ccc(-n3cc(C[N+]4(C)CCOCC4)nn3)cc2)NC(=O)[C@H]2NC(=O)[C@H](CCCCNC(C)=O)NC(=O)[C@H](Cc3c[nH]c4c(C)cccc34)NC(=O)[C@H]([C@@H](C)O)NC(=O)[C@H](CC(N)=O)NC(=O)[C@@H](NC(C)=O)C(C)(C)SSC2(C)C)CCOCC1)C(=O)N[C@@H](Cc1cccnc1)C(=O)N(C)CC(N)=O [compound 460] (Ac-[Pen]NT[Trp(7-Me)]K(Ac)[Pen][X13][2Nal][Thp]EK(Ac)[3Pal][Sar]-NH2; disulfide 1-6) | 167 A^2
2 | CC(=O)N(C)CCCC[C@H](NC(=O)[C@H](Cc1c[nH]c2ccccc12)NC(=O)[C@H](Cc1ccc2ccccc2c1)NC(=O)[C@H](Cc1ccc(OCCOCCOCC[N+](C)(C)C)cc1)NC(=O)[C@H]1NC(=O)[C@H](Cc2c[nH]c3ccccc23)NC(=O)[C@H](Cc2c[nH]c3c(C)cccc23)NC(=O)[C@H]([C@@H](C)O)NC(=O)[C@H](Cc2c[nH]c3ccccc23)NC(=O)[C@@H](NC(=O)CCOCCOCC[N+](C)(C)C)C(C)(C)SSC1(C)C)C(=O)N[C@@H](CC(N)=O)C(=O)N[C@@H](Cc1cccnc1)C(=O)N(C)CC(=O)N(C)C [compound 465, cPEG3aCO-Pen(3)-W-T-7MeW-W-Pen(3)-APEG3f-2Nal-W-K(NMeAc)-N-3Pya-Sar-CON(Me)2] ({Me3N+(CH2)2O(CH2)2O(CH2)2CO}-[Pen]WT[Trp(7-Me)]W[Pen]Y(CH2CH2OCH2CH2OCH2CH2NMe3+)[2Nal]W[Lys(Me)](Ac)N[3Pal][Sar]-NMe2; disulfide 1-6) | 176 A^2
3 | CC(=O)NCCCC[C@@H]1NC(=O)[C@H](Cc2c[nH]c3c(C)cccc23)NC(=O)[C@H]([C@@H](C)O)NC(=O)[C@H](CC(N)=O)NC(=O)[C@@H](NC(=O)[C@@H](CCCC[N+](C)(C)C)NC(C)=O)C(C)(C)SSC(C)(C)[C@@H](C(=O)N[C@@H](Cc2ccc(OCCN)cc2)C(=O)N[C@@H](Cc2ccc3ccccc3c2)C(=O)NC2(C(=O)N[C@@H](CCC(=O)O)C(=O)N[C@@H](CC(N)=O)C(=O)N[C@@H](Cc3cncc(C)c3)C(=O)N(C)CC(N)=O)CCOCC2)NC1=O [compound 474] (Ac-[dLys(Me3)][Pen]NT[Trp(7-Me)]K(Ac)[Pen][AEF][2Nal][Thp]EN[3Pal(5-Me)][Sar]-NH2; disulfide 2-7) | 185 A^2
4 | CC(=O)NCCCC[C@@H]1NC(=O)[C@H](Cc2c[nH]c3c(-c4cccc(NC(C)=O)c4)cccc23)NC(=O)[C@H]([C@@H](C)O)NC(=O)[C@H](CC(N)=O)NC(=O)[C@@H](NC(C)=O)C(C)(C)SSC(C)(C)[C@@H](C(=O)N[C@@H](Cc2ccc(OCCNC(=N)N)cc2)C(=O)N[C@@H](Cc2ccc3ccccc3c2)C(=O)NC2(C(=O)N[C@@H](CCCCN(C)C(C)=O)C(=O)N[C@@H](CC(N)=O)C(=O)N[C@@H](Cc3cncc(C)c3)C(=O)N(C)CC(N)=O)CCOCC2)NC1=O [compound 482, MeCO-Pen(3)-N-T-7(3NAcPh)W-K(Ac)-Pen(3)-AEF(G)-2Nal-THP-K(NMeAc)-N-5MePyridinAla-Sar-CONH2] | 180 A^2

Results, then the molecule that gave them:

Row | EPSA | SMILES
5 | 164 A^2 | CC(=O)NCCCC[C@@H]1NC(=O)[C@H](Cc2c[nH]c3c(C)cccc23)NC(=O)[C@H]([C@@H](C)O)NC(=O)[C@H](CC(N)=O)NC(=O)[C@H](NC(C)=O)CSSC[C@@](C)(C(=O)N[C@@H](Cc2ccc(OCCCCC[N+](C)(C)C)cc2)C(=O)N[C@@H](Cc2ccc3ccccc3c2)C(=O)NC2(C(=O)N[C@@H](CCCCNC(C)=O)C(=O)N[C@@H](CC(N)=O)C(=O)N[C@@H](Cc3cccnc3)C(=O)N(C)CC(N)=O)CCOCC2)NC1=O [compound 478, MeCO-C(3)-N-T-7MeW-K(Ac)-aMeC(3)-TMAPF-2Nal-THP-K(Ac)-N-3Pya-Sar-CONH2]
6 | 198 A^2 | CC(=O)NCCCC[C@@H]1NC(=O)[C@H](Cc2c[nH]c3c(-c4cccc(NC(C)=O)c4)cccc23)NC(=O)[C@H]([C@@H](C)O)NC(=O)[C@H](CC(N)=O)NC(=O)[C@@H](NC(=O)[C@@H](CCCC[N+](C)(C)C)NC(C)=O)C(C)(C)SSC(C)(C)[C@@H](C(=O)N[C@@H](Cc2ccc(OCCNC(=N)N)cc2)C(=O)N[C@@H](Cc2ccc3ccccc3c2)C(=O)NC2(C(=O)N[C@@H](CCC(=O)O)C(=O)N[C@@H](CC(N)=O)C(=O)N[C@@H](Cc3cncc(C)c3)C(=O)N(C)CC(N)=O)CCOCC2)NC1=O [compound 480, MeCO-k(Me)3-Pen(3)-N-T-7(3NAcPh)W-K(Ac)-Pen(3)-AEF(G)-2Nal-THP-E-N-5MePyridinAla-Sar-CONH2] (Ac-[dLys(Me3)][Pen]NT[Trp(7-(3-AcNH-Ph))]K(Ac)[Pen]Y(Ethyl(2-guanidino))[2Nal][Thp]EN[3Pal(5-Me)][Sar]-NH2; disulfide 2-7)
7 | 163 A^2 | CC(=O)N(C)CCCC[C@@H]1NC(=O)[C@H](Cc2c[nH]c3c(C)cccc23)NC(=O)[C@H]([C@@H](C)O)NC(=O)[C@H](CC(=O)N(C)C)NC(=O)[C@@H](NC(=O)CCOCCOCC[N+](C)(C)C)C(C)(C)SSC[C@@H](C(=O)N[C@@H](Cc2ccc(OCCCCC[N+](C)(C)C)cc2)C(=O)N[C@@H](Cc2ccc3ccccc3c2)C(=O)NC2(C(=O)N[C@@H](CCCCN(C)C(C)=O)C(=O)N[C@@H](CC(N)=O)C(=O)N[C@@H](Cc3cccnc3)C(=O)N(C)CC(=O)N(C)C)CCOCC2)NC1=O [compound 485, cPEG3aCO-Pen(3)-N(N(Me)2)-T-7MeW-K(NMeAc)-C(3)-TMAPF-2Nal-THP-K(NMeAc)-N-3Pya-Sar-CON(Me)2] ({Me3N+(CH2)2O(CH2)2O(CH2)2CO}-[Pen]D(NMe2)T[Trp(7-Me)][Lys(Me)](Ac)CY(X3)[2Nal][Thp][Lys(Me)](Ac)N[3Pal][Sar]-NMe2; disulfide 1-6)
8 | 182 A^2 | CC(=O)NCCCC[C@@H]1NC(=O)[C@H](Cc2c[nH]c3c(C)cccc23)NC(=O)[C@H]([C@@H](C)O)NC(=O)[C@H](CC(N)=O)NC(=O)[C@@H](NC(=O)COCCOCCNC(=O)COCCOCCNC(=O)COc2ccc(-c3ccc(F)cc3F)cc2C(=O)O)C(C)(C)SSC(C)(C)[C@@H](C(=O)N[C@@H](Cc2ccc(OCCCCC[N+](C)(C)C)cc2)C(=O)N[C@@H](Cc2ccc3ccccc3c2)C(=O)NC2(C(=O)N[C@@H](CCCCN(C)C(C)=O)C(=O)N[C@@H](CC(N)=O)C(=O)N[C@@H](Cc3cccnc3)C(=O)N(C)CC(N)=O)CCOCC2)NC1=O [compound 490, DFNPEG2PEG2CO-Pen(3)-N-T-7MeW-K(Ac)-Pen(3)-TMAPF-2Nal-THP-K(Ac)-N-3Pya-Sar-CONH2]
9 | 132 A^2 | CC(=O)N(C)CCCC[C@@H]1NC(=O)[C@H](Cc2c[nH]c3c(C)cccc23)NC(=O)[C@H](CC(C)C)NC(=O)[C@H](CC(=O)N(C)C)NC(=O)[C@@H](NC(=O)CCOCCOCC[N+](C)(C)C)C(C)(C)SSC(C)(C)[C@@H](C(=O)N[C@@H](Cc2ccc(OCCCCC[N+](C)(C)C)cc2)C(=O)N[C@@H](Cc2ccc3ccccc3c2)C(=O)NC2(C(=O)N[C@@H](CCCCN(C)C(C)=O)C(=O)N[C@@H](CC(N)=O)C(=O)N[C@@H](Cc3cccnc3)C(=O)N(C)CC(=O)N(C)C)CCOCC2)NC1=O [compound 493, cPEG3aCO-Pen(3)-N(N(Me)2)-L-7MeW-K(NMeAc)-Pen(3)-TMAPF-2Nal-THP-K(NMeAc)-N-3Pya-Sar-CON(Me)2] ({Me3N+(CH2)2O(CH2)2O(CH2)2CO}-[Pen]D(NMe2)L[Trp(7-Me)][Lys(Me)](Ac)[Pen]Y(X3)[2Nal][Thp][Lys(Me)](Ac)N[3Pal][Sar]-NMe2; disulfide 1-6)
